From patent US20060063784A1, “Method of using substituted pyrazolo [1,5-a] pyrimidines” (priority 2004, published 2006)
Where two headings read alike, the source gives them in different places.

Tested on: 80S14 (p21-deficient) cells
Assay: Cytotoxicity assay using isogenic cell lines: IC50 in 80S14 (p21-deficient) cells, SRB
Assay type: cell-based, human
Details: 80S14 p21-deficient cells, 5 days incubation, SRB, read-out: IC50 for 80SI4
Summary of the method: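 IC50 is the concentration halving proliferation relative to untreated controls, read from SRB absorbance (560 nm) after TCA fixation. Test agent dilutions (5 pM–50 μM or 170 pg/ml–10 μg/ml) were left on p21-deficient 80S14 cells (12,000/well, pre-incubated overnight) for 5 days at 37 °C.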

`CCCOC(=O)NCC(=O)Nc1cccc(-c2ccnc3c(C(=O)c4cccs4)cnn23)c1` [Example 114, propyl 2-oxo-2-({3-[3-(thien-2-ylcarbonyl)pyrazolo[1,5-a]pyrimidin-7-yl]phenyl}amino)ethylcarbamate] was tested. Which IC50 (Homo sapiens, 120 h) did it give?
Its IC50 is 10 to 50 µM.

With `CC(C)OC(=O)NCC(=O)Nc1cccc(-c2ccnc3c(C(=O)c4cccs4)cnn23)c1` [Example 115, isopropyl 2-oxo-2-({3-[3-(thien-2-ylcarbonyl)pyrazolo[1,5-a]pyrimidin-7-yl]phenyl}amino)ethylcarbamate] as the molecule, how does the IC50 (Homo sapiens, 120 h) read?
The IC50 was 1 to 10 µM.

Which IC50 (Homo sapiens, 120 h) does the source give for `CCCCOC(=O)NCC(=O)Nc1cccc(-c2ccnc3c(C(=O)c4cccs4)cnn23)c1` [Example 116, butyl 2-oxo-2-({3-[3-(thien-2-ylcarbonyl)pyrazolo[1,5-a]pyrimidin-7-yl]phenyl}amino)ethylcarbamate] here?
Its IC50 is less than 1 µM.

Which IC50 (Homo sapiens, 120 h) does the source give for `CC(C)COC(=O)NCC(=O)Nc1cccc(-c2ccnc3c(C(=O)c4cccs4)cnn23)c1` [Example 117, isobutyl 2-oxo-2-({3-[3-(thien-2-ylcarbonyl)pyrazolo[1,5-a]pyrimidin-7-yl]phenyl}amino)ethylcarbamate] here?
The IC50 was 1 to 10 µM.

With `C=CCCOC(=O)NCC(=O)Nc1cccc(-c2ccnc3c(C(=O)c4cccs4)cnn23)c1` [Example 118, but-3-enyl-2-oxo-2-({3-[3-(thien-2-ylcarbonyl)pyrazolo[1,5-a]pyrimidin-7-yl]phenyl}amino)ethylcarbamate] as the molecule, how does the IC50 (Homo sapiens, 120 h) read?
Its IC50 is 1 to 10 µM.

Which IC50 (Homo sapiens, 120 h) does the source give for `O=C(CNC(=O)OCCCCCl)Nc1cccc(-c2ccnc3c(C(=O)c4cccs4)cnn23)c1` [Example 119, 4-chlorobutyl 2-oxo-2-({3-[3-(thien-2-ylcarbonyl)pyrazolo[1,5-a]pyrimidin-7-yl]phenyl}amino)ethylcarbamate] here?
Its IC50 is 10 to 50 µM.

`O=C(CNC(=O)OCCCl)Nc1cccc(-c2ccnc3c(C(=O)c4cccs4)cnn23)c1` [Example 120, 2-chloroethyl-2-oxo-2-({3-[3-(thien-2-ylcarbonyl)pyrazolo[1,5-a]pyrimidin-7-yl]phenyl}amino)ethylcarbamate] was tested. Which IC50 (Homo sapiens, 120 h) did it give?
The IC50 was 1 to 10 µM.

`CC(C)(C)COC(=O)NCC(=O)Nc1cccc(-c2ccnc3c(C(=O)c4cccs4)cnn23)c1` [Example 121, neopentyl 2-oxo-2-({3-[3-(thien-2-ylcarbonyl)pyrazolo[1,5-a]pyrimidin-7-yl]phenyl}amino)ethylcarbamate] was tested. Which IC50 (Homo sapiens, 120 h) did it give?
Its IC50 is 1 to 10 µM.

For `CCCCCCOC(=O)NCC(=O)Nc1cccc(-c2ccnc3c(C(=O)c4cccs4)cnn23)c1` [Example 122, hexyl 2-oxo-2-({3-[3-(thien-2-ylcarbonyl)pyrazolo[1,5-a]pyrimidin-7-yl]phenyl}amino)ethylcarbamate], which IC50 (Homo sapiens, 120 h) is on record?
The IC50 was 1 to 10 µM.

With `C#CCOC(=O)NCC(=O)Nc1cccc(-c2ccnc3c(C(=O)c4cccs4)cnn23)c1` [Example 123, prop-2-ynyl 2-oxo-2-({3-[3-(thien-2-ylcarbonyl)pyrazolo[1,5-a]pyrimidin-7-yl]phenyl}amino)ethylcarbamate] as the molecule, how does the IC50 (Homo sapiens, 120 h) read?
The IC50 was 1 to 10 µM.

How did the IC50 (Homo sapiens, 120 h) turn out when `C=CCOC(=O)NCC(=O)Nc1cccc(-c2ccnc3c(C(=O)c4cccs4)cnn23)c1` [Example 124, allyl 2-oxo-2-({3-[3-(thien-2-ylcarbonyl)pyrazolo[1,5-a)pyrimidin-7-yl]phenyl}amino)ethylcarbamate] was run?
The IC50 was 10 to 50 µM.

`O=C(CNC(=O)OCc1ccccc1)Nc1cccc(-c2ccnc3c(C(=O)c4cccs4)cnn23)c1` [Example 125, benzyl 2-oxo-2-({3-[3-(thien-2-ylcarbonyl)pyrazolo[1,5-a]pyrimidin-7-yl]phenyl}amino)ethylcarbamate] was tested. Which IC50 (Homo sapiens, 120 h) did it give?
Its IC50 is 1 to 10 µM.

With `O=C(CNC(=O)C1CC1)Nc1cccc(-c2ccnc3c(C(=O)c4cccs4)cnn23)c1` [Example 126, N-[2-oxo-2-({3-[3-(thien-2-ylcarbonyl)pyrazolo[1,5-a]pyrimidin-7-yl]phenyl}amino)ethyl]cyclopropanecarboxamide] as the molecule, how does the IC50 (Homo sapiens, 120 h) read?
The IC50 was 10 to 50 µM.

Which IC50 (Homo sapiens, 120 h) does the source give for `O=C(CNC(=O)C1CCC1)Nc1cccc(-c2ccnc3c(C(=O)c4cccs4)cnn23)c1` [Example 127, N-[2-oxo-2-({3-[3-(thien-2-ylcarbonyl)pyrazolo[1,5-a]pyrimidin-7-yl]phenyl}amino)ethyl]cyclobutanecarboxamide] here?
Its IC50 is 10 to 50 µM.

How did the IC50 (Homo sapiens, 120 h) turn out when `O=C(CNC(=O)C1CCCC1)Nc1cccc(-c2ccnc3c(C(=O)c4cccs4)cnn23)c1` [Example 128, N-[2-oxo-2-({3-[3-(thien-2-ylcarbonyl)pyrazolo[1,5-a]pyrimidin-7-yl]phenyl}amino)ethyl]cyclopentanecarboxamide] was run?
The IC50 was 1 to 10 µM.

Which IC50 (Homo sapiens, 120 h) does the source give for `O=C(CNC(=O)C1CCCCC1)Nc1cccc(-c2ccnc3c(C(=O)c4cccs4)cnn23)c1` [Example 129, N-[2-oxo-2-({3-[3-(thien-2-ylcarbonyl)pyrazolo[1,5-a]pyrimidin-7-yl]phenyl}amino)ethyl]cyclohexanecarboxamide] here?
Its IC50 is 10 to 50 µM.

For `CCC(C)C(=O)NCC(=O)Nc1cccc(-c2ccnc3c(C(=O)c4cccs4)cnn23)c1` (centres unmarked) [Example 130, 2-methyl-N-[2-oxo-2-({3-[3-(thien-2-ylcarbonyl)pyrazolo[1,5-a]pyrimidin-7-yl]phenyl}amino)ethyl]butanamide], which IC50 (Homo sapiens, 120 h) is on record?
Its IC50 is 10 to 50 µM.

Which IC50 (Homo sapiens, 120 h) does the source give for `CCC(CC)C(=O)NCC(=O)Nc1cccc(-c2ccnc3c(C(=O)c4cccs4)cnn23)c1` [Example 131, 2-ethyl-N-[2-oxo-2-({3-[3-(thien-2-ylcarbonyl)pyrazolo[1,5-a]pyrimidin-7-yl]phenyl}amino)ethyl]butanamide] here?
Its IC50 is 10 to 50 µM.

Which IC50 does the source give for `CC(C)(C)C(=O)NCC(=O)Nc1cccc(-c2ccnc3c(C(=O)c4cccs4)cnn23)c1` [Example 132] here?
Its IC50 is 1 to 10 µM.

How did the IC50 (Homo sapiens, 120 h) turn out when `CC(C)CC(=O)NCC(=O)Nc1cccc(-c2ccnc3c(C(=O)c4cccs4)cnn23)c1` [Example 133, 3-methyl-N-[2-oxo-2-({3-[3-(thien-2-ylcarbonyl)pyrazolo[1,5-a]pyrimidin-7-yl]phenyl}amino)ethyl]butanamide] was run?
The IC50 was 1 to 10 µM.

With `O=C(CNC(=O)C12CC3CC(CC(C3)C1)C2)Nc1cccc(-c2ccnc3c(C(=O)c4cccs4)cnn23)c1` [Example 134, N-[2-oxo-2-({3-[3-(thien-2-ylcarbonyl)pyrazolo[1,5-a]pyrimidin-7-yl]phenyl}amino)ethyl]adamantine-1-carboxamide] as the molecule, how does the IC50 read?
Its IC50 is 1 to 10 µM.

How did the IC50 (Homo sapiens, 120 h) turn out when `O=C(CNC(=O)c1ccccc1)Nc1cccc(-c2ccnc3c(C(=O)c4cccs4)cnn23)c1` [Example 135, N-[2-oxo-2-({3-[3-(thien-2-ylcarbonyl)pyrazolo[1,5-a]pyrimidin-7-yl]phenyl]amino)ethyl]benzamide] was run?
The IC50 was 1 to 10 µM.

With `CCCCCNC(=O)NCC(=O)Nc1cccc(-c2ccnc3c(C(=O)c4cccs4)cnn23)c1` [Example 136, N-2-[(pentylamino)carbonyl]-N-1-{3-[3-(thien-2-ylcarbonyl)pyrazolo[1,5-a]pyrimidin-7-yl]phenyl}gylcinamide] as the molecule, how does the IC50 read?
The IC50 was 10 to 50 µM.

Which IC50 does the source give for `CCNC(=O)NCC(=O)Nc1cccc(-c2ccnc3c(C(=O)c4cccs4)cnn23)c1` [Example 137, N-2-[(ethylamino)carbonyl]-N-1-{3-[3-(thien-2-ylcarbonyl)pyrazolo[1,5-a]pyrimidin-7-yl]phenyl}glycinamide] here?
Its IC50 is 1 to 10 µM.

Which IC50 does the source give for `O=C(CNC(=O)NC1CCCCC1)Nc1cccc(-c2ccnc3c(C(=O)c4cccs4)cnn23)c1` [Example 138, N-2-[(cyclohexylamino)carbonyl]-N1-{3-[3-(thien-2-ylcarbonyl)pyrazolo[1,5-a]pyrimidin-7-yl]phenyl}glycinamide] here?
Its IC50 is 1 to 10 µM.

Which IC50 (Homo sapiens, 120 h) does the source give for `O=C(CCCl)Nc1cccc(-c2ccnc3c(C(=O)c4cccs4)cnn23)c1` [Example 139, 3-chloro-N-{3-[3-(thien-2-ylcarbonyl)pyrazolo[1,5-a]pyrimidin-7-yl]phenyl}propanamide] here?
The IC50 was less than 1 µM.
